# According to article PMC10582325 (Frontiers in Pharmacology, 2023):
# Where two headings read alike, the source gives them in different places.
# How the values were obtained:
# [1] = biological target: T1, CYP2A6 (Homo sapiens, UniProt P11509); experiment: Direct CYP inhibition in human liver microsomes with marker probe substrates; conditions: read-out: Inhibition, IC50; HLM, CYP2A6 probe substrate
# T1 sequence (P11509 1-494): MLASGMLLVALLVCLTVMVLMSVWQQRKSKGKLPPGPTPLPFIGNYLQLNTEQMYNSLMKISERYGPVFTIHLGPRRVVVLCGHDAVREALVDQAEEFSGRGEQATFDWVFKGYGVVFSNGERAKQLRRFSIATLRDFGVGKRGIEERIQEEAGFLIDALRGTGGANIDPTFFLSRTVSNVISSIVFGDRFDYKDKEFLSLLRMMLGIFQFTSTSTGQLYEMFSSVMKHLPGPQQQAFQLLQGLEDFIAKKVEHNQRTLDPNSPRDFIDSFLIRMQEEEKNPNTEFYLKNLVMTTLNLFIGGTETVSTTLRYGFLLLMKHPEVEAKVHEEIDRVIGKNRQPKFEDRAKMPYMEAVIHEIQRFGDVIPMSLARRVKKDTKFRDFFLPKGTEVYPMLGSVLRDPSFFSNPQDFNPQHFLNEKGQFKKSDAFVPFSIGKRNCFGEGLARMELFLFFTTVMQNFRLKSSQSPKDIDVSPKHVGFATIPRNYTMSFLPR
# [2] = biological target: CYP3A4 (Homo sapiens, UniProt P08684); conditions: for IC50: read-out: Inhibition, IC50, HLM
# Chain of CYP3A4 (P08684 2-503): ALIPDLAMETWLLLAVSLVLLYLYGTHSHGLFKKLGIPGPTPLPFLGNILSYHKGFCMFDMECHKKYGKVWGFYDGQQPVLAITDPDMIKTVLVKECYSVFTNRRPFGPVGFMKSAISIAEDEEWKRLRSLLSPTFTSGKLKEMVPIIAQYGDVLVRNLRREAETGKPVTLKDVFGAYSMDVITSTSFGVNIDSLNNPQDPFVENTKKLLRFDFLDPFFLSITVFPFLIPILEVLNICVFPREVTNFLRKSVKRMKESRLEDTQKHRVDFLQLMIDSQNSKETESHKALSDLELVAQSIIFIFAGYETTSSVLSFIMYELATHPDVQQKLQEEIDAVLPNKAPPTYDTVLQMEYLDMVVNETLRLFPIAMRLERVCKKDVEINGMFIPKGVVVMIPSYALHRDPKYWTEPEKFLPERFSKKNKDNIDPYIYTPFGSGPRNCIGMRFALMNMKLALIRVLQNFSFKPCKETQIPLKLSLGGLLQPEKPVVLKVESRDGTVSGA
# [3] = biological target: CYP2D6 (Homo sapiens, UniProt P10635); experiment: Direct CYP inhibition in human liver microsomes with marker probe substrates; conditions: read-out: Inhibition, IC50; HLM, CYP2D6 probe substrate
# Chain of CYP2D6 (P10635 whole entry): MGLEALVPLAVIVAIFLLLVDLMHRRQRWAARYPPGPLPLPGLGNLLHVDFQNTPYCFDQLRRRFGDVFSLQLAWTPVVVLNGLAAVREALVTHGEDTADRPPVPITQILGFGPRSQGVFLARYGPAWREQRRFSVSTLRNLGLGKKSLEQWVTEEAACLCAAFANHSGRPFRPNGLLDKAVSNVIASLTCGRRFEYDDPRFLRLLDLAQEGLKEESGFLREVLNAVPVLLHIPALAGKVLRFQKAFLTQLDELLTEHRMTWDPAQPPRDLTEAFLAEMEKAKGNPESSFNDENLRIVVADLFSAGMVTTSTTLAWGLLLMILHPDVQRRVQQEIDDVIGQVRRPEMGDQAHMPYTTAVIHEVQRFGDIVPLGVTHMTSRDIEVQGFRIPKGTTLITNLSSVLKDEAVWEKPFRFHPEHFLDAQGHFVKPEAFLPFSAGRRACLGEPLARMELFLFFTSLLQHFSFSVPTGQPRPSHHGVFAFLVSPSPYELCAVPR
# [4] = Plasma concentration 3 h post dose in murine model of tuberculosis; assay type: in vivo, BALB/c mice infected with M. tuberculosis H37Rv; conditions: TB model
# [5] = Stability of BDQ, M2 and TBI-166 in mice plasma (LC-MS/MS validation)
# [6] = biological target: CYP2C19 (Homo sapiens, UniProt P33261); experiment: Direct CYP inhibition in human liver microsomes with marker probe substrates; conditions: read-out: Inhibition, IC50; HLM, CYP2C19 probe substrate
# Chain of CYP2C19 (P33261 whole entry): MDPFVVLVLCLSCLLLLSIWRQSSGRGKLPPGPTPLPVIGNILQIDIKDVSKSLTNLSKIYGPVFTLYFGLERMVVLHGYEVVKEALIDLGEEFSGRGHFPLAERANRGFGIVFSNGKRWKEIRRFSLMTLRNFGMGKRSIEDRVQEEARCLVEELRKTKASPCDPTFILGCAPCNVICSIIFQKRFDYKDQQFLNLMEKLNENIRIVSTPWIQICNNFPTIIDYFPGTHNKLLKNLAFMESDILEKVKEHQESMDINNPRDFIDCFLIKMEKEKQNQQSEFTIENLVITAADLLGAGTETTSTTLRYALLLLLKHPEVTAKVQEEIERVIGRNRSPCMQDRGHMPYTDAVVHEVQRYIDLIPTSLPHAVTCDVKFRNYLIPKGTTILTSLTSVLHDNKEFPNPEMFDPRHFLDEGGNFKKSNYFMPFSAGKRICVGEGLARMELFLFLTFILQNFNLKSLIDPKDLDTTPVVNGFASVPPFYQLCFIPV
# [7] = biological target: T2, CYP1A2 (Homo sapiens, UniProt P05177); experiment: as above; conditions: read-out: Inhibition, IC50; HLM, CYP1A2 probe substrate
# T2 sequence (P05177 1-516): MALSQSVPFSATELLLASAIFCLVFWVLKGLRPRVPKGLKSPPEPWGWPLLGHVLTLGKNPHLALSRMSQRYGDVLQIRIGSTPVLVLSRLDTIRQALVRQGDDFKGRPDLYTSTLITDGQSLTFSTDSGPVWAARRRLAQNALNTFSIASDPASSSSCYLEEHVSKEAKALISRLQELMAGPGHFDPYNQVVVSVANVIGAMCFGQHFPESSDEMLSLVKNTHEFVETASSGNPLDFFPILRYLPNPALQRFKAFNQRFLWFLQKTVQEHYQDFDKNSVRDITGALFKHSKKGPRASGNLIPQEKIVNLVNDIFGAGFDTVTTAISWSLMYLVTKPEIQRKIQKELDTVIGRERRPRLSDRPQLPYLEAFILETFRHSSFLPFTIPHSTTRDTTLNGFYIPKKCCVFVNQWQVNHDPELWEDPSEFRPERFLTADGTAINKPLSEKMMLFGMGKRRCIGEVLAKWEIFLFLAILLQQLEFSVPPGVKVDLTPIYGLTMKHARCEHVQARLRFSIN
# [8] = biological target: T3, CYP2C8 (Homo sapiens, UniProt P10632); experiment: as above; conditions: read-out: Inhibition, IC50; HLM, CYP2C8 probe substrate
# T3 sequence (P10632 1-490): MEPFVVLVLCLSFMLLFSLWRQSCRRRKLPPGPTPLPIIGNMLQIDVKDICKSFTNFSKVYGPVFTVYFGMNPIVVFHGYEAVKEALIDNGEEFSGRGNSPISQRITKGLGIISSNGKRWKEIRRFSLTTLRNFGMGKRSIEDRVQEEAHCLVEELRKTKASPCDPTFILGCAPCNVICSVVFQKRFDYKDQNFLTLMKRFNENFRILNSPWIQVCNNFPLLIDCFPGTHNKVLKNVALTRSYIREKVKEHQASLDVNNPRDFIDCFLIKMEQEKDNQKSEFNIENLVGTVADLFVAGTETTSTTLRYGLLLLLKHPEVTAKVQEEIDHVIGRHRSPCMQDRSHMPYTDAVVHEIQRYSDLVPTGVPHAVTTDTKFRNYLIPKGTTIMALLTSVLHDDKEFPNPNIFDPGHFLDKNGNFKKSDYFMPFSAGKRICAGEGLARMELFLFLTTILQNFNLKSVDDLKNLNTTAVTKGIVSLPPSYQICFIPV
compound,measurement,setting,value
"COc1ncccc1Nc1cc2nc3ccccc3n(-c3ccc(OC(F)(F)F)cc3)c-2cc1=NC1CCC(OC)CC1 (centres unmarked) [TBI-166, Pyrifazimine]",IC50,[1],1380 nM
same,inhibitor strength class for CYP3A4 pathway,[2]; based on IC50 with testosterone,moderate (1 µM < IC50 < 10 µM)
same,IC50,[2]; CYP3A4 MDZ (midazolam as probe substrate),17400 nM
same,IC50,[2]; CYP3A4 TEST (testosterone as probe substrate),2650 nM
same,IC50,[3],1600 nM
same,Mean plasma concentration at three hours after oral administration,"[4]; BDQ + TBI-166 group, W4",1383.02 ± 411.59 ng/mL
same,Mean plasma concentration at three hours after oral administration,"[4]; BDQ + TBI-166 group, W8",1330.40 ± 133.72 ng/mL
same,Mean plasma concentration at three hours after oral administration,"[4]; BDQ group (25 mg/kg), W4, LLOQ 5, 5, 15 ng/mL for BDQ, TBI-166, M2",<LLOQ
same,Mean plasma concentration at three hours after oral administration,"[4]; BDQ group (25 mg/kg), W8, LLOQ 5, 5, 15 ng/mL for BDQ, TBI-166, M2",<LLOQ
same,Mean plasma concentration at three hours after oral administration,"[4]; TBI-166 group (20 mg/kg), W4, LLOQ 5, 5, 15 ng/mL for BDQ, TBI-166, M2",1375.79 ± 123.54 ng/mL
same,Mean plasma concentration at three hours after oral administration,"[4]; TBI-166 group (20 mg/kg), W8, LLOQ 5, 5, 15 ng/mL for BDQ, TBI-166, M2",1323.76 ± 311.89 ng/mL
same,"Stability in mice plasma, RE","[5]; 4℃ for 24 h, 15 ng/mL",-15.07%
same,"Stability in mice plasma, RE","[5]; 4℃ for 24 h, 75 ng/mL",1.87%
same,"Stability in mice plasma, RE","[5]; 4℃ for 24 h, 750 ng/mL",-12.65%
same,"Stability in mice plasma, RE","[5]; -40℃ for 7 d, 15 ng/mL",-2.20%
same,"Stability in mice plasma, RE","[5]; -40℃ for 7 d, 75 ng/mL",-1.01%
same,"Stability in mice plasma, RE","[5]; -40℃ for 7 d, 750 ng/mL",-13.53%
same,"Stability in mice plasma, RE","[5]; Freeze-thaw three cycles, 15 ng/mL",-14.27%
same,"Stability in mice plasma, RE","[5]; Freeze-thaw three cycles, 75 ng/mL",-5.39%
same,"Stability in mice plasma, RE","[5]; Freeze-thaw three cycles, 750 ng/mL",-13.50%
same,"Stability in mice plasma, RE","[5]; In auto-sample for 24 h, 15 ng/mL",18.87%
same,"Stability in mice plasma, RE","[5]; In auto-sample for 24 h, 75 ng/mL",-12.61%
same,"Stability in mice plasma, RE","[5]; In auto-sample for 24 h, 750 ng/mL",-7.77%
same,"Stability in mice plasma, RE","[5]; Room temperature for 24 h, 15 ng/mL",-6.20%
same,"Stability in mice plasma, RE","[5]; Room temperature for 24 h, 75 ng/mL",-6.81%
same,"Stability in mice plasma, RE","[5]; Room temperature for 24 h, 750 ng/mL",-10.81%
same,IC50,[6],4490 nM
same,IC50,[7],550 nM
same,IC50,[8],> 50000 nM
